Assay results published in ChEMBL document CHEMBL5715954, “Silencing c-Myc translation as a therapeutic strategy through targeting PI3Kδ and CK1ε in hematological malignancies” (Blood, 2017).

How the values were obtained:
Set-up in all cases: scale not given: the % may be the effect or the level left
[1] = molecular target: Serine/threonine-protein kinase 26 (Homo sapiens) (UniProt Q9P289); experiment: Inhibition of human MST4 assessed as enzyme activity at 1 uM using myelin basic protein as substrate preincubated for 20 mins followed by [gamma-33P]-ATP addition and measured after 120 mins by radiometric Hot-SpotSM Kinase assay relative to control
[2] = molecular target: T1, Serine/threonine-protein kinase DCLK2 (Homo sapiens) (UniProt Q8N568); experiment: Inhibition of human DCAMKL2 assessed as enzyme activity at 1 uM using KKLNRTLSFAEPG as substrate preincubated for 20 mins followed by [gamma-33P]-ATP addition and measured after 120 mins by radiometric Hot-SpotSM Kinase assay relative to control
T1 sequence (whole entry): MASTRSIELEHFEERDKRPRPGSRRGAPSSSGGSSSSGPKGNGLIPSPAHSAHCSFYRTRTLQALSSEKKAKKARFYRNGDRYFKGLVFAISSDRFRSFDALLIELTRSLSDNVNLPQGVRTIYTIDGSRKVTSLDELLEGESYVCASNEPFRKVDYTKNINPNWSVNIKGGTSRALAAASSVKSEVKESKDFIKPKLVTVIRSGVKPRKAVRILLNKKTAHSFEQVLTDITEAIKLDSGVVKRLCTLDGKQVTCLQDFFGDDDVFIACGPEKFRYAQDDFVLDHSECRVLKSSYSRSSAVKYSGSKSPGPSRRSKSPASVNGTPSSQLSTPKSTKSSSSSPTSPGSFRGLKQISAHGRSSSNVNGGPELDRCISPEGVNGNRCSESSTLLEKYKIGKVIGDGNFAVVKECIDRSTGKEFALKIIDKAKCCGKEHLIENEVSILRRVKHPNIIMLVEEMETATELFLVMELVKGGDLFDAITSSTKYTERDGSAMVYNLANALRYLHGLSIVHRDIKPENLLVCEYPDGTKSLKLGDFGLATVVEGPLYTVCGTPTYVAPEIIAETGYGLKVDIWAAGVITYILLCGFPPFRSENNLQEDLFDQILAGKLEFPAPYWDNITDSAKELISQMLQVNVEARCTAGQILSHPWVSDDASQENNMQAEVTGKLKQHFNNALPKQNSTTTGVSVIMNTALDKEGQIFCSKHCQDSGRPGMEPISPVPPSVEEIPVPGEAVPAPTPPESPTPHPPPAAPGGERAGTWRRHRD

[3] = molecular target: Mitogen-activated protein kinase kinase kinase 1 (Homo sapiens) (UniProt Q13233); experiment: Inhibition of human MEKK1 assessed as enzyme activity at 1 uM using myelin basic protein as substrate preincubated for 20 mins followed by [gamma-33P]-ATP addition and measured after 120 mins by radiometric Hot-SpotSM Kinase assay relative to control
[4] = molecular target: T2, Megakaryocyte-associated tyrosine-protein kinase (Homo sapiens) (UniProt P42679); experiment: Inhibition of human CTK/MATK assessed as enzyme activity at 1 uM using poly[Glu:Tyr] (4:1) as substrate preincubated for 20 mins followed by [gamma-33P]-ATP addition and measured after 120 mins by radiometric Hot-SpotSM Kinase assay relative to control
T2 sequence (whole entry): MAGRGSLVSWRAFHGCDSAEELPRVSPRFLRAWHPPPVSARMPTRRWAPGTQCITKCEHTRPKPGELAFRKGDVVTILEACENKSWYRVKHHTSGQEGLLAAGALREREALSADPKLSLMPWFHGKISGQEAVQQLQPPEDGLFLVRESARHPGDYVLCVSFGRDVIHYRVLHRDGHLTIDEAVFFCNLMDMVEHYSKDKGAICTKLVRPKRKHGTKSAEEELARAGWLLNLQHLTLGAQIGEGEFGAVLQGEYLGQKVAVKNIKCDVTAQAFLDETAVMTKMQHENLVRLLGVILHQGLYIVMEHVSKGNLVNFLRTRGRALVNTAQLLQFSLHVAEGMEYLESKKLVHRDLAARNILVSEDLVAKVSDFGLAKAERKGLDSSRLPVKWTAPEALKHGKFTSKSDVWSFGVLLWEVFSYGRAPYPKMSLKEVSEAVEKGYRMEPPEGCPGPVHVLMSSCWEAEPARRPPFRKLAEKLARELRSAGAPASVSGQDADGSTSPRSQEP

[5] = molecular target: CDK6/cyclin D1 (Homo sapiens) (UniProt P24385+Q00534); experiment: Inhibition of human CDK6/cyclin D1 assessed as enzyme activity at 1 uM using RB Protein as substrate preincubated for 20 mins followed by [gamma-33P]-ATP addition and measured after 120 mins by radiometric Hot-SpotSM Kinase assay relative to control; assay type: protein-complex assay
[6] = molecular target: Testis-specific serine/threonine-protein kinase 6 (Homo sapiens) (UniProt Q9BXA6); experiment: Inhibition of human SSTK assessed as enzyme activity at 1 uM using myelin basic protein as substrate preincubated for 20 mins followed by [gamma-33P]-ATP addition and measured after 120 mins by radiometric Hot-SpotSM Kinase assay relative to control
[7] = molecular target: STE20/SPS1-related proline-alanine-rich protein kinase (Homo sapiens) (UniProt Q9UEW8); experiment: Inhibition of human STK39 assessed as enzyme activity at 1 uM using myelin basic protein as substrate preincubated for 20 mins followed by [gamma-33P]-ATP addition and measured after 120 mins by radiometric Hot-SpotSM Kinase assay relative to control
[8] = molecular target: Tyrosine-protein kinase BTK (Homo sapiens) (UniProt Q06187); experiment: Inhibition of human BTK assessed as enzyme activity at 1 uM using poly[Glu:Tyr] (4:1) as substrate preincubated for 20 mins followed by [gamma-33P]-ATP addition and measured after 120 mins by radiometric Hot-SpotSM Kinase assay relative to control
[9] = molecular target: Calcium/calmodulin-dependent protein kinase type II subunit beta (Homo sapiens) (UniProt Q13554); experiment: Inhibition of human CAMK2b assessed as enzyme activity at 1 uM using KKALRRQETVDAL as substrate preincubated for 20 mins followed by [gamma-33P]-ATP addition and measured after 120 mins by radiometric Hot-SpotSM Kinase assay relative to control
Calcium/calmodulin-dependent protein kinase type II subunit beta (Homo sapiens), sequence (Q13554 whole entry): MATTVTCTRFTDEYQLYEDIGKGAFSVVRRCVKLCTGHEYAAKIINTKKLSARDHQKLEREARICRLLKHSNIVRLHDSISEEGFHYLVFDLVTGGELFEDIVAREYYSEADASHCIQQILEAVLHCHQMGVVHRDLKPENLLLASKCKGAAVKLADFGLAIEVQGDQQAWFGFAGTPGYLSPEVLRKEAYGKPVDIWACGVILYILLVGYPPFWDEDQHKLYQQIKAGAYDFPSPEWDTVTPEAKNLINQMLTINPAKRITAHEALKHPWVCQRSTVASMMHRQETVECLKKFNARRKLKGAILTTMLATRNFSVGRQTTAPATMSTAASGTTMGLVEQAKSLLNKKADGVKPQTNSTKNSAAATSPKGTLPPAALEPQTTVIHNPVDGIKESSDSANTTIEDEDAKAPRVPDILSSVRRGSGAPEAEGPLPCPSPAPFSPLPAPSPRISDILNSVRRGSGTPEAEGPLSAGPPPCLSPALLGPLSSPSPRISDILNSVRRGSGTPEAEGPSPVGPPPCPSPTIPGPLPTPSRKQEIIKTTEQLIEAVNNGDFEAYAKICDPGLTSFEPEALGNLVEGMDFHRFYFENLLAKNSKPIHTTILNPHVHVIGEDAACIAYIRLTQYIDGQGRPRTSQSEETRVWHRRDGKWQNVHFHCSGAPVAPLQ

Mitogen-activated protein kinase kinase kinase 1 (Homo sapiens), sequence (Q13233 whole entry): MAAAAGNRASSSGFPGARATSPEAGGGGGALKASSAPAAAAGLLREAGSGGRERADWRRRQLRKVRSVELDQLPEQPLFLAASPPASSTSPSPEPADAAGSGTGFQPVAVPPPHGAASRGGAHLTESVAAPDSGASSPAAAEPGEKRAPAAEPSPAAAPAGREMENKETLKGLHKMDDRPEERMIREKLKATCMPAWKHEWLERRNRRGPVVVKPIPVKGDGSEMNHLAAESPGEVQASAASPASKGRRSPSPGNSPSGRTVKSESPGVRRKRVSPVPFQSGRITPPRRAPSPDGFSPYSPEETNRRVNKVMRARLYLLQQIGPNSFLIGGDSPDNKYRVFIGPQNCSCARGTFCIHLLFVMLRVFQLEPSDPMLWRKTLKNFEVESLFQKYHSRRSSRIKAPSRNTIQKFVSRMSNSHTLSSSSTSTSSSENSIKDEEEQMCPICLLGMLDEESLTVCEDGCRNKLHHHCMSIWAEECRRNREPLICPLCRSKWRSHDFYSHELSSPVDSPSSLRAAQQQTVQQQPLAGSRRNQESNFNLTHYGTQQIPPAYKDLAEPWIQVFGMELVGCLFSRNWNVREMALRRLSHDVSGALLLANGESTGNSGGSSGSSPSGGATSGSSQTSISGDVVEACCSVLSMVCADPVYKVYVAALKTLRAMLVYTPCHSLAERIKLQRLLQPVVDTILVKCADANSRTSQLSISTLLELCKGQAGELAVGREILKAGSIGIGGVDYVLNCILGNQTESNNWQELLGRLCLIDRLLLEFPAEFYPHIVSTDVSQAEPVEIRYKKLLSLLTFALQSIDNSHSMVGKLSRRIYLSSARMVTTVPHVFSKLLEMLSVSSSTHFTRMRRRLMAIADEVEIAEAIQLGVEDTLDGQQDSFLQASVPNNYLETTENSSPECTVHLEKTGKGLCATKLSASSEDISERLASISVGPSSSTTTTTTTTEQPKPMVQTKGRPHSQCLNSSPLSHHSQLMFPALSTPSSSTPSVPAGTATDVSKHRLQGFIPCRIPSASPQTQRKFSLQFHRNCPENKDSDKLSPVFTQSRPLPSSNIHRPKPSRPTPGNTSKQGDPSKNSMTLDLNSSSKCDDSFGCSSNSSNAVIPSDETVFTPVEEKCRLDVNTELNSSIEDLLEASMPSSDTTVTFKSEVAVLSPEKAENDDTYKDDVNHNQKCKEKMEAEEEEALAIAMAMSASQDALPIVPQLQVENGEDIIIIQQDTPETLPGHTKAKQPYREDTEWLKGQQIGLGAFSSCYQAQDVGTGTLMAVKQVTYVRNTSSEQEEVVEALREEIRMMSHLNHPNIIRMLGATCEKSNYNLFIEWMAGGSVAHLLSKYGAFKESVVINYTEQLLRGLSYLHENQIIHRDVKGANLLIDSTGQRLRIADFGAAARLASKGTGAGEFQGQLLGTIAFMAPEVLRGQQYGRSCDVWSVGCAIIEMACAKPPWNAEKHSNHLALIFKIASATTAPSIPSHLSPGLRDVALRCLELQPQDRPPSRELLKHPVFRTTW
Testis-specific serine/threonine-protein kinase 6 (Homo sapiens), sequence (Q9BXA6 whole entry): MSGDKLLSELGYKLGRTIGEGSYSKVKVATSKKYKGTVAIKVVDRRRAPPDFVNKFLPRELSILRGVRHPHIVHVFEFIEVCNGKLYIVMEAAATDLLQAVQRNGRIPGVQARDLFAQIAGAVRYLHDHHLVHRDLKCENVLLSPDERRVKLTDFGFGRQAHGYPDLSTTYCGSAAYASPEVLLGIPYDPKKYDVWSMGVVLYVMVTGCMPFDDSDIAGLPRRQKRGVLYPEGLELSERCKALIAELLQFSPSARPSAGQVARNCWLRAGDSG
Tyrosine-protein kinase BTK (Homo sapiens), sequence (Q06187 whole entry): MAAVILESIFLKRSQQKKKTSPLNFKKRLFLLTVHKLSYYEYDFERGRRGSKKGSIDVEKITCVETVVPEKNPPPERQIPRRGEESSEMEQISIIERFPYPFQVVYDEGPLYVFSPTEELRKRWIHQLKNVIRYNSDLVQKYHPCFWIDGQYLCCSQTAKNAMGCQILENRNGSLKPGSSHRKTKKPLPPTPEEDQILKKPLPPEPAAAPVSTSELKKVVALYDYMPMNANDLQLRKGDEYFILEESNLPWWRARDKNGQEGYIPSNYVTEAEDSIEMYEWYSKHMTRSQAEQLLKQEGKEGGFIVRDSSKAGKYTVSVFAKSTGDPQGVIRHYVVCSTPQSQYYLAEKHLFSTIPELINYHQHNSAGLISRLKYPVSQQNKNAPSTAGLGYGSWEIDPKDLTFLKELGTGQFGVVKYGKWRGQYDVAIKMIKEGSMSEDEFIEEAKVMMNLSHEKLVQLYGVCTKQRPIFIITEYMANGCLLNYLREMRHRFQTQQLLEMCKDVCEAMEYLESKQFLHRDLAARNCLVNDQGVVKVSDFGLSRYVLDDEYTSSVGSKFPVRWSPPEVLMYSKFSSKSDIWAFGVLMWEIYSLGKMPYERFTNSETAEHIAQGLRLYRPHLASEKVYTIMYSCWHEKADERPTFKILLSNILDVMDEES
Serine/threonine-protein kinase 26 (Homo sapiens), sequence (Q9P289 2-416 limits assumed): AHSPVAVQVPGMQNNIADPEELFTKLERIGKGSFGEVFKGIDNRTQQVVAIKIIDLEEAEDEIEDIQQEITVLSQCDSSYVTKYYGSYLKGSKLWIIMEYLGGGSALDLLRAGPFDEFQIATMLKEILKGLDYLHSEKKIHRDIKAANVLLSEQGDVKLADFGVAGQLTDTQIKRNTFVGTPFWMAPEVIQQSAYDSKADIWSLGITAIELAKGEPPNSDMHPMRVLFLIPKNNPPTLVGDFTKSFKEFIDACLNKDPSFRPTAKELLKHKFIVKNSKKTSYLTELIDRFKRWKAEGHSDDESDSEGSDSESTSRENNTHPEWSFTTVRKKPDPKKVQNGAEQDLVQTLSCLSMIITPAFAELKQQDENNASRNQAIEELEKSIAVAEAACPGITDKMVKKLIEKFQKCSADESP

Structure (SMILES): C[C@H](Nc1ncnc2nc[nH]c12)c1cc2cccc(Cl)c2c(=O)n1-c1ccccc1
- Activity [1]: 83.5%
- Activity [2]: 94.1%
- Activity [3]: 107%
- Activity [4]: 105%
- Activity [5]: 91.3%
- Activity [6]: 103%
- Activity [7]: 78.1%
- Activity [8]: 98.7%
- Activity [9]: 95.8%

Structure (SMILES): CC[C@H](Nc1ncnc2[nH]cnc12)c1nc2cccc(F)c2c(=O)n1-c1ccccc1
- Activity [1]: 91.5%
- Activity [2]: 94.7%
- Activity [3]: 101%
- Activity [4]: 105%
- Activity [5]: 94.6%
- Activity [6]: 105%
- Activity [7]: 87.1%
- Activity [8]: 97.3%
- Activity [9]: 96.2%

Structure (SMILES): CC(C)Oc1ccc(-c2nn([C@@H](C)c3oc4ccc(F)cc4c(=O)c3-c3cccc(F)c3)c3ncnc(N)c23)cc1F [UMBRALISIB]
- Activity [1]: 88.2%
- Activity [2]: 94.7%
- Activity [3]: 101%
- Activity [4]: 106%
- Activity [5]: 89.2%
- Activity [6]: 102%
- Activity [7]: 85.4%
- Activity [8]: 96.8%
- Activity [9]: 92.3%
